Data on one compound can be found in US20220023271A1, “COMPOSITION FOR PREVENTING OR TREATING CELLULAR SENESCENCE-RELATED DISEASES COMPRISING ZOTAROLIMUS AS ACTIVE INGREDIENT” (RESEARCH COOPERATION FOUNDATION OF YEUNGNAM UNIVERSITY, priority 2018, published 2022).

What all share (assay type): cell-based
Series [1] concerns human dermal fibroblasts (HDF). The series can be described thus: SAβG activity staining in senescent human fibroblasts. The following applies: 4 days; for SAβG activity: 100 nM. The method, then: (§1) Each cell was treated in a serum-free culture solution containing 0.5 μM doxorubicin for 4 hours. After washing the cells with a serum-free culture solution, the cells were cultured for 4 days in a culture solution containing 10% FBS, and then cellular aging was confirmed by staining with senescence-associated beta galactosidase (SAβG). After dispensing 2×10^5 cells in a 100 mm culture dish, they were cultured in a 37° C., 5% CO2 incubator. When the cells grew to 80-90% in the culture dish, the cells were removed by treatment with trypsin-EDTA, and the number of cells was measured, and the cell population doubling time (PDT) was measured. By successively subculturing the cells in the same process as described above, replication aging was induced. PDT of young fibroblasts was 36 hours, PDT of replicative senescent fibroblasts was 12 days, PDT of young vascular endothelial cells was 24 hours, and PDT of replicative senescent vascular endothelial cells was 7 days. After each sample was dissolved in DMSO, young cells, replicative senescent cells, and premature senescent cells treated with doxorubicin were treated with 100 nM zotarolimus, 100 nM rapamycin, 100 nM ABT263, respectively. After incubation for 4 days in a 37° C., 5% CO2 incubator, the degree of cell growth was confirmed by CCK-8 analysis, the degree of cellular aging was confirmed by senescence-related beta-galactosidase (SAβG) staining, The cells were washed with 1× phosphate buffer solution, and fixed with a phosphate buffer solution containing 3.7% (v/v) paraformaldehyde. After adding 1 mg/ml 5-bromo-4-chloro-3-indolyl-6-D-galactoside, 40 mM citric acid-sodium phosphate (pH 6.0), 5 mM potassium ferricyanide, 5 mM potassium ferrocyanide, 150 mM NaCl, and 2 mM MgCl2 solution, it was reacted at 37° C. for 18 hours. It was stained with eosin as a control stain. Cells stained blue in the cytoplasm were identified using an optical microscope. Human fibroblasts were treated with doxorubicin to induce early cellular senescence. […]

For series [2], the system named is human retinal pigmented epithelial cells (ARPE-19). In words: LDH activity analysis in retinal pigmented epithelial cells. Particulars: young and senescent retinal pigmented epithelial cells. The method, then:
(§2) Cytotoxicity against young and senescent cells was investigated with a lactate dehydrogenase (LDH) activity kit (Dojindo Molecular Technologies Inc.).
(§3) Young cells (1×10^3 cells/100 μl/well) or senescent cells (2×10^3 cells/100 μl/well) were dispensed into a 96-well plate, and then cultured overnight in a 37° C., 5% CO2 incubator. Zotarolimus and ABT263 were treated at each concentration, and then incubated for 4 days in a 37° C., 5% CO2 incubator.
(§4) After transferring the cell culture solution to a 1.5 ml tube, it was centrifuged at 4° C. and 12,000 rpm. 100 μl of the supernatant was dispensed into a 96-well plate, and 100 μl of the LDH measurement solution was added to each well, followed by reaction in a CO2 incubator for 30 minutes.
(§5) 50 μl of the LDH reaction stop solution was added, and absorbance was measured at 490 nm using a microplate reader. The level of LDH activity was expressed as a relative value based on the absorbance of the control group treated with only DMSO.

Series [3] deals with human umbilical vascular endothelial cells (HUVEC). In words: SAβG activity staining in senescent vascular endothelial cells. The following applies: 4 days. The method, then: as §1, with “microscope.” for “microscope. Human fibroblasts were treated with doxorubicin to induce early cellular senescence.”
For series [4] the test system is unchanged. The series can be described thus: LDH activity in cell culture solution of vascular endothelial cells. Particulars: young and replicative senescent HUVEC; 4 days. The method, then: as §2, §3, §4, §5
In order to confirm whether the decrease in cell growth caused by zotarolimus as described above was due to cell death, LDH activity was investigated in the cell culture solution.

On to `CO[C@H]1C[C@@H]2CC[C@@H](C)[C@@](O)(O2)C(=O)C(=O)N2CCCC[C@H]2C(=O)O[C@H]([C@H](C)C[C@@H]2CC[C@H](n3cnnn3)[C@H](OC)C2)CC(=O)[C@H](C)/C=C(\C)[C@@H](O)[C@@H](OC)C(=O)[C@H](C)C[C@H](C)/C=C/C=C/C=C/1C` [zotarolimus], for which the SAβG activity entry is reported as “decreased compared to the DMSO-treated group” in series [1] (premature senescent fibroblasts by doxorubicin, vs DMSO-treated group); “significantly reduced” in series [1] (replicative senescent fibroblasts, vs DMSO, p<0.01); “significantly decreased” in series [3] (replicative senescent HUVEC, 100 nM, vs DMSO-treated group and rapamycin-treated group). The “SAβG activity compared with rapamycin” value in series [1] (replicative senescent fibroblasts, 100 nM each, p<0.05) was “significantly reduced than that of rapamycin”. Besides, in series [2], the “cytotoxicity by LDH activity analysis” value was “cytotoxicity specific to senescent cells did not appear”. The “SAβG activity staining compared with rapamycin” value in series [3] (premature senescent HUVEC by doxorubicin, 100 nM each) is on record as “significantly decreased than rapamycin”. Besides, in series [3] (premature senescent HUVEC by doxorubicin, 100 nM, vs DMSO-treated group, p<0.01), the SAβG activity staining result is listed as “significantly decreased”. The “LDH activity in the cell culture solution” value in series [4] is recorded as “no difference in LDH activity”.
